In patent US20080090805A1, “CB-1 MODULATING COMPOUNDS AND THEIR USE” (ACADIA PHARMACEUTICALS INC., priority 2005, published 2008):
Where two headings read alike, the source gives them in different places.

Target: CB1 (mutant) (Homo sapiens, UniProt P21554)
Experiment: R-SAT functional receptor assay, CB1 (mutant, truncated after amino acid 417)
Type: cell-based
Conditions: R-SAT CB1
[1] = Appendix A, receptor form (mutant or wild-type) not stated, read-out: pIC50 (converted)
[2] = Appendix A, receptor form not stated, relative to SR141716 (100%), read-out: % Inhibition
[3] = pIC50, Appendix A, receptor form (mutant or wild-type) not stated

CB1 (mutant), sequence (P21554 1-417, change not shown): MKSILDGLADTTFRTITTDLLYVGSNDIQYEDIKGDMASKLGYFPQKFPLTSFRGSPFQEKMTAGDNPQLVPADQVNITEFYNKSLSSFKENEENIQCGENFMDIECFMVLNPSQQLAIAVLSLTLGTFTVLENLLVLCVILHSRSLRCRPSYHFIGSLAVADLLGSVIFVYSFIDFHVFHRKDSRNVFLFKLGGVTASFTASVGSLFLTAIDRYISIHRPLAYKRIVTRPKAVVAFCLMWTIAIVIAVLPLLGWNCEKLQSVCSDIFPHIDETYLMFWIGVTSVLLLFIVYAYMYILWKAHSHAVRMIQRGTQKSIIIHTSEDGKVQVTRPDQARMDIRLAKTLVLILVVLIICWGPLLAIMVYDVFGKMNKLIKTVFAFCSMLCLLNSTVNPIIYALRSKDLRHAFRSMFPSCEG

SMILES | IC50 [1] | Emax [2] | also measured
O=C(NCCc1ccccn1)c1ccc2c(c1)N=C(c1ccc(Br)cc1)c1ccccc1S2 [drawing 734] | 79.4 nM | 89% | –
CCCC1=Nc2cc(C(=O)NCC(C)c3ccccc3)ccc2Sc2ccccc21 (centres unmarked) [drawing 735] | 7.94 nM | 104% | –
C[C@@H]1CCC[C@H](C)N1NC(=O)c1ccc2c(c1)N=C(c1ccc(Cl)c(Cl)c1)c1ccccc1S2 [drawing 739] | – | 114% | IC50 [3]: 7.94 nM
CC(C)CNC(=O)c1ccc2c(c1)N=C(c1ccc(Cl)cc1)c1ccccc1S2 [drawing 741] | – | 123% | IC50 [3]: 7.94 nM
O=C(NC1CCCC1)c1ccc2c(c1)N=C(c1cccc(F)c1)c1ccccc1S2 [drawing 742] | 79.4 nM | 100% | –
O=C(NCCc1ccccc1)c1ccc2c(c1)N=C(c1ccc(Cl)cc1)c1ccccc1S2 [drawing 743] | 7.94 nM | 110% | –
O=C(NN1CCCCC1)c1ccc2c(c1)N=C(C1CCCCC1)c1ccccc1S2 [drawing 744] | – | – | Emax (read-out: % Inhibition, Appendix A, receptor form not stated, relative to SR141716 (100%)): 86%
O=C(NCc1ccc(F)cc1)c1ccc2c(c1)N=C(c1ccccc1)c1ccccc1S2 [drawing 745] | 7.94 nM | 108% | –
NS(=O)(=O)c1ccc(CNC(=O)c2ccc3c(c2)N=C(c2ccc(Cl)cc2)c2ccccc2S3)cc1 [drawing 746] | 79.4 nM | 76% | –
O=C(NCc1cccc(Cl)c1)c1ccc2c(c1)N=C(c1ccc(F)cc1)c1ccccc1S2 [drawing 747] | – | – | pIC50 (Appendix A, receptor form (mutant or wild-type) not stated): 8.1; % Inhibition (Appendix A, receptor form not stated, relative to SR141716 (100%)): 106%
O=C(NCc1cccs1)c1ccc2c(c1)N=C(c1ccc(Cl)cc1)c1ccccc1S2 [drawing 751] | 7.94 nM | 107% | –
CN1c2ccc(C(=O)NCc3ccc(F)cc3)cc2N=C(c2ccc(F)cc2)c2ccccc21 [drawing 752] | 79.4 nM | 91% | –
Cc1ccsc1C1=Nc2cc(C(=O)NCC(C)C)ccc2Sc2ccccc21 [drawing 757] | 10 nM | 88% | –
O=C(NCc1cccc(Cl)c1)c1ccc2c(c1)N=C(N1CCCCC1)c1ccccc1[S+]2[O-] (centres unmarked) [drawing 758] | 100 nM | 71% | –
CC(NC(=O)c1ccc2c(c1)N=C(c1ccc(F)cc1)c1ccccc1S2)c1ccccc1 (centres unmarked) [drawing 760] | 100 nM | 81% | –
CCCC1=Nc2cc(C(=O)NCCCc3ccccc3)ccc2Sc2ccccc21 [drawing 763] | 10 nM | 104% | –
CCCCNC(=O)c1ccc2c(c1)N=C(c1ccc(Cl)cc1)c1ccc(Cl)cc1S2 [drawing 766] | – | 90% | IC50 [3]: 100 nM
CCCCNC(=O)c1ccc2c(c1)N=C(c1ccc(Cl)c(F)c1)c1ccccc1S2 [drawing 769] | 10 nM | 106% | –

SMILES | IC50 [1] | Emax [2] | also measured
CC(C)CCNC(=O)c1ccc2c(c1)N=C(c1ccc(F)cc1)c1ccccc1S2 [drawing 771] | – | 107% | IC50 [3]: 10 nM
Cc1ccsc1C1=Nc2cc(C(=O)NN3[C@H](C)CCC[C@@H]3C)ccc2Sc2ccccc21 [drawing 772] | – | 89% | IC50 [3]: 100 nM
CCN(CCNC(=O)c1ccc2c(c1)N=C(c1ccccc1)c1ccccc1S2)c1ccccc1 [drawing 777] | 10 nM | 106% | –
CC(C)CNC(=O)c1ccc2c(c1)N=C(c1ccc(Br)cc1)c1ccccc1S2 [drawing 781] | – | 80% | IC50 [3]: 10 nM
O=C(NC1CCCC1)c1ccc2c(c1)N=C(c1ccc(Cl)cc1)c1ccccc1S2 [drawing 782] | 100 nM | 105% | –
CCCCNC(=O)c1ccc2c(c1)N=C(c1ccc(F)cc1)c1ccccc1S2 [drawing 785] | – | 96% | IC50 [3]: 10 nM
CCOCCNC(=O)c1ccc2c(c1)N=C(c1ccc(C#N)cc1)c1ccccc1S2 [drawing 788] | 100 nM | 74% | –
CCOCCNC(=O)c1ccc2c(c1)N=C(c1cccc(Br)c1)c1ccccc1S2 [drawing 789] | 10 nM | 119% | –
O=C(NCc1cccnc1)c1ccc2c(c1)N=C(c1cccc(F)c1)c1ccccc1S2 [drawing 793] | 10 nM | 130% | –
O=C(NCc1cccs1)c1ccc2c(c1)N=C(c1ccccc1F)c1ccccc1S2 [drawing 795] | 10 nM | 114% | –
O=C(NN1CCCCCC1)c1ccc2c(c1)N=C(c1ccc(Cl)s1)c1ccccc1S2 [drawing 797] | 10 nM | 105% | –
Cc1ccc(CNC(=O)c2ccc3c(c2)N=C(c2ccc(Cl)c(Cl)c2)c2ccccc2S3)o1 [drawing 801] | 10 nM | 100% | –
Cc1ccc(CNC(=O)c2ccc3c(c2)N=C(c2ccsc2)c2ccccc2S3)o1 [drawing 803] | 10 nM | 94% | –
C[C@@H]1CCC[C@H](C)N1NC(=O)c1ccc2c(c1)N=C(c1ccc(Cl)cc1F)c1ccccc1S2 [drawing 811] | 10 nM | 103% | –
CCCCNC(=O)c1ccc2c(c1)N=C(c1ccc(Cl)cn1)c1ccccc1S2 [drawing 813] | 10 nM | 106% | –
CCOC(=O)N1CCC(NC(=O)c2ccc3c(c2)N=C(C2CCCCC2)c2ccccc2S3)CC1 [drawing 814] | – | 95% | –
Cc1cccc(C2=Nc3cc(C(=O)NCCC(F)(F)F)ccc3Sc3ccccc32)n1 [drawing 815] | 12.6 nM | 93% | –
O=C(NN1CCCCC1)c1ccc2c(c1)N=C(c1ccc(Cl)s1)c1ccccc1S2 [drawing 823] | – | 97% | IC50 [3]: 12.6 nM

Second part, led by results:

IC50 [1] | Emax [2] | SMILES | also measured
79.4 nM | 91% | O=C(NCCc1cccc(Cl)c1)c1ccc2c(c1)N=C(c1ccccc1F)c1ccccc1S2 [drawing 736] | –
7.94 nM | 98% | CCCCNC(=O)c1ccc2c(c1)N=C(c1cccc(Cl)c1)c1ccccc1S2 [drawing 737] | –
79.4 nM | 96% | O=C(NC1CCCCC1)c1ccc2c(c1)N=C(c1ccc(Cl)cc1)c1ccccc1S2 [drawing 738] | –
79.4 nM | 109% | O=C(NC1CCCCC1)c1ccc2c(c1)N=C(c1ccccc1F)c1ccccc1S2 [drawing 740] | –
79.4 nM | 69% | CC(NC(=O)c1ccc2c(c1)N=C(c1ccccc1F)c1ccccc1S2)c1ccccc1 (centres unmarked) [drawing 748] | –
7.94 nM | 94% | O=C(NCc1ccco1)c1ccc2c(c1)N=C(c1ccc(Cl)cc1)c1ccccc1S2 [drawing 753] | –
10 nM | 111% | O=C(NCc1ccccc1)c1ccc2c(c1)N=C(c1ccccc1)c1ccccc1S2 [drawing 755] | –
10 nM | 96% | O=C(NCc1ccccc1)c1ccc2c(c1)N=C(c1ccc(F)cc1)c1ccccc1S2 [drawing 759] | –
10 nM | 104% | CCCCNC(=O)c1ccc2c(c1)N=C(c1ccccc1)c1ccccc1S2 [drawing 761] | –
100 nM | 83% | O=C(NNC(=O)c1ccc2c(c1)N=C(c1ccc(F)cc1)c1ccccc1S2)c1ccccc1 [drawing 764] | –
10 nM | 92% | Cc1ccc(CNC(=O)c2ccc3c(c2)N=C(c2ccc(Cl)s2)c2ccccc2S3)o1 [drawing 765] | –
10 nM | 71% | O=C(NC1CCC(F)(F)CC1)c1ccc2c(c1)N=C(c1ccc(Cl)s1)c1ccccc1S2 [drawing 767] | –
10 nM | 99% | CCN(CCNC(=O)c1ccc2c(c1)N=C(c1ccc(F)cc1)c1ccccc1S2)c1ccccc1 [drawing 773] | –
10 nM | 113% | O=C(NCCc1ccc(Cl)cc1)c1ccc2c(c1)N=C(N1CCCCC1)c1ccccc1S2 [drawing 775] | –
10 nM | 107% | O=C(NCCc1cccc(Cl)c1)c1ccc2c(c1)N=C(c1cccc(Cl)c1)c1ccccc1S2 [drawing 779] | –
100 nM | 84% | COc1ccc(C2=Nc3cc(C(=O)NC(C)C)ccc3Sc3ccccc32)cc1 [drawing 780] | –

IC50 [1] | Emax [2] | SMILES | also measured
10 nM | 100% | CC(CNC(=O)c1ccc2c(c1)N=C(C1CCCCC1)c1ccccc1S2)c1ccccc1 (centres unmarked) [drawing 783] | –
10 nM | 107% | CCCC1=Nc2cc(C(=O)NCc3ccc(F)cc3)ccc2Sc2ccccc21 [drawing 787] | –
10 nM | 105% | CCCC1=Nc2cc(C(=O)NCc3ccccc3Cl)ccc2Sc2ccccc21 [drawing 791] | –
– | 83% | COc1ccc(C2=Nc3cc(C(=O)NNC(=O)c4ccccc4)ccc3Sc3ccccc32)cc1 [drawing 798] | –
10 nM | 103% | CCCNC(=O)c1ccc2c(c1)N=C(c1ccc(Cl)cc1)c1ccccc1S2 [drawing 799] | –
10 nM | 96% | Cc1cccc(C2=Nc3cc(C(=O)NCc4ccc(C)o4)ccc3Sc3ccccc32)n1 [drawing 805] | –
– | 87% | CCONC(=O)c1ccc2c(c1)N=C(c1ccc(Cl)c(Cl)c1)c1ccccc1S2 [drawing 806] | –
10 nM | 105% | CCCCNC(=O)c1ccc2c(c1)N=C(c1ccc(Br)cn1)c1ccccc1S2 [drawing 807] | –
10 nM | 82% | Cc1cccc(C2=Nc3cc(C(=O)NCC(C)C)ccc3Sc3ccccc32)n1 [drawing 809] | –
– | 83% | NS(=O)(=O)c1ccc(CNC(=O)c2ccc3c(c2)N=C(c2ccc(F)cc2)c2ccccc2S3)cc1 [drawing 812] | –
– | 81% | O=C(NNCC(F)(F)F)c1ccc2c(c1)N=C(c1ccc(Cl)cc1)c1ccccc1S2 [drawing 816] | –
12.6 nM | 108% | O=C(NN1CCCCC1)c1ccc2c(c1)N=C(c1ccc(F)c(Cl)c1)c1ccccc1S2 [drawing 817] | –
12.6 nM | 103% | COCCNC(=O)c1ccc2c(c1)N=C(c1ccc(Cl)s1)c1ccccc1S2 [drawing 819] | –
12.6 nM | 91% | O=C(NC1CCC(F)(F)CC1)c1ccc2c(c1)N=C(c1ccc(F)cc1)c1ccccc1S2 [drawing 821] | –
12.6 nM | 104% | O=C(NCCc1cccnc1)c1ccc2c(c1)N=C(c1ccc(Cl)c(Cl)c1)c1ccccc1S2 [drawing 825] | –
